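These data come from cells grown in 96-well plates and exposed to compound for 48 hours at five concentrations. The concentration for 50% growth inhibition is given as GI50. TGI marks complete inhibition of growth.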
Experiments:
Test in all cases: growth of human tumour cells (NCI), 48 h
UACC-257 melanoma = test system: UACC-257 melanoma
TK-10 renal = test system: TK-10 renal
SNB-75 CNS = test system: SNB-75 CNS
IGROV1 ovarian = test system: IGROV1 ovarian
SK-OV-3 ovarian = test system: SK-OV-3 ovarian
SK-MEL-28 melanoma = test system: SK-MEL-28 melanoma
SR leukemia = test system: SR leukemia
A549 NSCLC = test system: A549 NSCLC
UO-31 renal = test system: UO-31 renal
NCI/ADR-RES ovarian = test system: NCI/ADR-RES ovarian
BT-549 breast = test system: BT-549 breast
ACHN renal = test system: ACHN renal
HCT-116 colon = test system: HCT-116 colon
MDA-MB-231 breast = test system: MDA-MB-231 breast
HCC-2998 colon = test system: HCC-2998 colon
U251 CNS = test system: U251 CNS
RPMI-8226 leukemia = test system: RPMI-8226 leukemia
HS 578T breast = test system: HS 578T breast
MALME-3M melanoma = test system: MALME-3M melanoma
SF-268 CNS = test system: SF-268 CNS
EKVX NSCLC = test system: EKVX NSCLC
SN12C renal = test system: SN12C renal
PC-3 prostate = test system: PC-3 prostate
NCI-H522 lung = test system: NCI-H522 lung
HCT-15 colon = test system: HCT-15 colon
SK-MEL-2 melanoma = test system: SK-MEL-2 melanoma
DU-145 prostate = test system: DU-145 prostate
SF-539 CNS = test system: SF-539 CNS
HT29 colon = test system: HT29 colon
SF-295 CNS = test system: SF-295 CNS
K-562 leukemia = test system: K-562 leukemia
CAKI-1 renal = test system: CAKI-1 renal
MDA-MB-435 = test system: MDA-MB-435
HL-60(TB) leukemia = test system: HL-60(TB) leukemia
MCF7 breast = test system: MCF7 breast
SW-620 colon = test system: SW-620 colon
COLO 205 colon = test system: COLO 205 colon
OVCAR-4 ovarian = test system: OVCAR-4 ovarian
UACC-62 melanoma = test system: UACC-62 melanoma
786-0 renal = test system: 786-0 renal
NCI-H23 lung = test system: NCI-H23 lung
SNB-19 CNS = test system: SNB-19 CNS
MOLT-4 leukemia = test system: MOLT-4 leukemia
NCI-H226 lung = test system: NCI-H226 lung
RXF 393 renal = test system: RXF 393 renal
M14 melanoma = test system: M14 melanoma
NCI-H460 lung = test system: NCI-H460 lung
KM12 colon = test system: KM12 colon
OVCAR-8 ovarian = test system: OVCAR-8 ovarian
LOX IMVI melanoma = test system: LOX IMVI melanoma
OVCAR-5 ovarian = test system: OVCAR-5 ovarian
HOP-62 NSCLC = test system: HOP-62 NSCLC
SK-MEL-5 melanoma = test system: SK-MEL-5 melanoma
HOP-92 NSCLC = test system: HOP-92 NSCLC
T-47D breast = test system: T-47D breast
CCRF-CEM leukemia = test system: CCRF-CEM leukemia

## CS(=O)(=O)Nc1cc(-c2ccc3ncc(C#N)c(NCc4cccc(F)c4)c3c2)cnc1Cl
UACC-257 melanoma
  GI50: 335 nM
  TGI: 7140 nM
TK-10 renal
  GI50: 141 nM
  TGI: 1220 nM
SNB-75 CNS
  GI50: 34.3 nM
  TGI: 448 nM
IGROV1 ovarian
  GI50: 122 nM
  TGI: 972 nM
SK-OV-3 ovarian
  GI50: 263 nM
  TGI: 1760 nM
SK-MEL-28 melanoma
  GI50: 191 nM
  TGI: 4690 nM
SR leukemia
  GI50: 112 nM
  TGI: 2240 nM
A549 NSCLC
  GI50: 695 nM
  TGI: 6800 nM
UO-31 renal
  GI50: 162 nM
  TGI: > 21500 nM
NCI/ADR-RES ovarian
  GI50: 1990 nM
  TGI: 40300 nM
BT-549 breast
  GI50: 73.6 nM
  TGI: 678 nM
ACHN renal
  GI50: 570 nM
  TGI: > 45100 nM
HCT-116 colon
  GI50: 277 nM
  TGI: 1480 nM
MDA-MB-231 breast
  GI50: 350 nM
  TGI: 4960 nM
HCC-2998 colon
  GI50: 367 nM
  TGI: 6560 nM
U251 CNS
  GI50: 197 nM
  TGI: 2680 nM
RPMI-8226 leukemia
  GI50: 287 nM
  TGI: 2160 nM
HS 578T breast
  GI50: 51.3 nM
  TGI: 451 nM
MALME-3M melanoma
  GI50: 79.3 nM
  TGI: 559 nM
SF-268 CNS
  GI50: 196 nM
  TGI: 3610 nM
EKVX NSCLC
  GI50: 381 nM
  TGI: 5130 nM
SN12C renal
  GI50: 278 nM
  TGI: 32400 nM
PC-3 prostate
  GI50: 284 nM
  TGI: 5710 nM
NCI-H522 lung
  GI50: 369 nM
  TGI: 7860 nM
HCT-15 colon
  GI50: 289 nM
  TGI: 11800 nM
SK-MEL-2 melanoma
  GI50: 122 nM
  TGI: 374 nM
DU-145 prostate
  GI50: 336 nM
  TGI: 11800 nM
SF-539 CNS
  GI50: 195 nM
  TGI: 1850 nM
HT29 colon
  GI50: 502 nM
  TGI: 4640 nM
SF-295 CNS
  GI50: 237 nM
  TGI: 2430 nM
K-562 leukemia
  GI50: 274 nM
  TGI: > 59300 nM
CAKI-1 renal
  GI50: 163 nM
  TGI: 2040 nM
MDA-MB-435
  GI50: 258 nM
  TGI: 9500 nM
HL-60(TB) leukemia
  GI50: 330 nM
  TGI: 4450 nM
MCF7 breast
  GI50: 118 nM
  TGI: 9850 nM
SW-620 colon
  GI50: 344 nM
  TGI: 10300 nM
COLO 205 colon
  GI50: 357 nM
  TGI: 1650 nM
OVCAR-4 ovarian
  GI50: 309 nM
  TGI: > 27700 nM
UACC-62 melanoma
  GI50: 121 nM
  TGI: 1190 nM
786-0 renal
  GI50: 310 nM
  TGI: 5520 nM
NCI-H23 lung
  GI50: 348 nM
  TGI: 13600 nM
SNB-19 CNS
  GI50: 292 nM
  TGI: 11000 nM
MOLT-4 leukemia
  GI50: 218 nM
  TGI: 1980 nM
NCI-H226 lung
  GI50: 363 nM
  TGI: 22800 nM
RXF 393 renal
  GI50: 110 nM
  TGI: 784 nM
M14 melanoma
  GI50: 254 nM
  TGI: 5860 nM
NCI-H460 lung
  GI50: 509 nM
  TGI: 11400 nM
KM12 colon
  GI50: 347 nM
  TGI: 2610 nM
OVCAR-8 ovarian
  GI50: 366 nM
  TGI: 16400 nM
LOX IMVI melanoma
  GI50: 200 nM
  TGI: 1110 nM
OVCAR-5 ovarian
  GI50: 473 nM
  TGI: 12000 nM
HOP-62 NSCLC
  GI50: 220 nM
  TGI: 4150 nM
SK-MEL-5 melanoma
  GI50: 179 nM
  TGI: 403 nM
HOP-92 NSCLC
  GI50: 36.3 nM
  TGI: 459 nM
T-47D breast
  GI50: 63.5 nM
  TGI: 1460 nM
CCRF-CEM leukemia
  GI50: 164 nM
  TGI: 20400 nM

Source: PubChem BioAssay (NCI)
